Results taken from EP4259152B1, “CEMTIRESTAT DISULFIDE, PRODRUG OF ALDO-KETO REDUCTASE INHIBITOR, PREPARATION, PHARMACEUTICAL COMPOSITION AND USE THEREOF” (Centrum Experimentálnej Medicíny SAV, v.v.i., priority 2020, dated 2022).
Where two headings read alike, the source gives them in different places.

How the values were obtained:
AKR1B10 [1] = target: T1, AKR1B10 (Homo sapiens, UniProt O60218); conditions: Stefek et al.; J. Med Chem. 58: 2649-57, 2015; cited from earlier work
[2] = Test A: Reduction of disulfide of formula I by GSH (cleavage kinetics to form cemtirestat of formula II, absorbance at 302 nm); type: physicochemical; conditions: mean ± SD, n=3; for Final degree of disulfide of formula I reduction: calculated after reaching the maximum in the 60th second, disulfide 50 µM, pH 7.4, 37 °C; for Initial rate of cemtirestat of formula II formation: disulfide of formula I 50 µM, 20 mM phosphate buffer (pH 7.4) at 37 °C
ALR2 = target: T2, ALR2 (Rattus norvegicus, UniProt P07943); assay: Test B: Inhibition of ALR2 by disulfide of formula I in the presence of GSH (NADPH consumption at 340 nm); type: biochemical; conditions: disulfide of formula I 100 µM, 67 mM phosphate buffer (pH 7.4), 37 °C, measured 2 min after GSH addition
T2 construct: The ALR2 enzyme from rat lenses was isolated by the method of Hayman and Kinoshit; from tissue; host or cells: rat eye lenses
Description: Preparation ofALR2. The ALR2 enzyme from rat lenses was isolated by the method of Hayman and Kinoshit (J. Biol. Chem. 240: 877-882, 1965). The homogenate was centrifuged at 10,000 g at 0-4 °C for 20 min. The supernatant was precipitated with saturated ammonium sulfate solution gradually at 40 %, 50 % and finally at 75 % saturation. After the first two precipitations, the supernatant was used. The sediment from the last step, containing ALR2 activity, was resuspended in 75% ammonium sulfate and stored in smaller aliquots in a liquid nitrogen container.
Enzyme test. ALR2 activity was measured spectrophotometrically (Stefek et al.; Bioorg. Med Chem. 16: 4908-4920, 2008) by determining NADPH consumption at 340 nm and expressed as a decrease in optical density (O.D.) / s / mg protein. The reaction mixture contained 4.67 mM D,L-glyceraldehyde as substrate, 0.11 mM NADPH in 67 mM phosphate buffer (pH 7.4), GSH at the desired concentration and 0.05 ml of enzyme preparation a total volume of 1.5 ml. The reference (blank) sample contained all of the above components except D,L-glyceraldehyde substrate and was used to correct for NADPH oxidation unrelated to substrate reduction. Enzyme catalysis was initiated by the addition of D,L-glyceraldehyde and the reaction was monitored for 4 minutes after an initial 1 minute period at 37 °C. The enzyme activity was adjusted by diluting the enzyme preparations with distilled water so that 0.05 ml of the preparation gave an average reaction rate for the control samples in the range of 0.020 ± 0.005 absorbance units / min. The effect of inhibitor on enzyme activity was determined by adding a stock solution of inhibitor in DMSO to the reaction mixture at a final concentration of 100 µM so that the final DMSO concentration was 1%. An inhibitor with the same concentration was added to the reference sample. Enzyme activity was started 2 min after the addition of GSH to the reaction mixture by adding D,L-glyceraldehyde used as a substrate, and I(%) values were determined from the measured absorbance decrease values.

[3] = Test C: Determination of the distribution ratio in the buffer/octan-1-ol system (shake-flask method); type: physicochemical; conditions: for D (distribution ratio in the buffer/octan-1-ol system): 100 µM, room temperature, mean ± SD, n=3
Description: The partition ratio in the buffer/1-octanol system (system name octan-1-ol), defined as the equilibrium ratio of the total solute concentration in the organic phase to the total solute concentration in the aqueous phase, was determined by the shake-flask method at room temperature. Octan-1-ol saturated with the desired buffer was used as the organic phase for the determination. […] The aqueous solution was shaken with octan-1-ol (20 mL) for 3 hours. Subsequently, the phases were separated in a separatory funnel and the concentration of the solute was determined spectrophotometrically in both phases by means of a calibration curve.

AKR1B1 = AKR1B1 (Homo sapiens, UniProt P15121); assay: Inhibition of aldo-keto reductase AKR1B1; type: biochemical
AKR1B10 [4] = target: T1, AKR1B10; assay: Inhibition of aldo-keto reductase AKR1B10; type: biochemical; conditions: meaning of 'does not interact per se'

T1 sequence (O60218 whole entry, species assumed): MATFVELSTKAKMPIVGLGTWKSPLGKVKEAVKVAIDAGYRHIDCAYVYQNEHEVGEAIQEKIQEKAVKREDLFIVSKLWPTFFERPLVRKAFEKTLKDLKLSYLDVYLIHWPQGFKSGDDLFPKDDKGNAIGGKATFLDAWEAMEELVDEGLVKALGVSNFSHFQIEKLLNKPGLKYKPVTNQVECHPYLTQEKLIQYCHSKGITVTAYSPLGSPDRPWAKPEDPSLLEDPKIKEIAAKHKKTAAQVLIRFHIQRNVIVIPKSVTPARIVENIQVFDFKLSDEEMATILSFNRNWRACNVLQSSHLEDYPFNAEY

SMILES | IC50 (AKR1B10 [1]) | Final degree of disulfide of formula I reduction ([2]; GSH 25 µM) | Initial rate of cemtirestat of formula II formation ([2]; GSH 25 µM) | Final degree of disulfide of formula I reduction ([2]; GSH 50 µM) | Initial rate of cemtirestat of formula II formation ([2]; GSH 50 µM) | Final degree of disulfide of formula I reduction ([2]; GSH 100 µM) | Initial rate of cemtirestat of formula II formation ([2]; GSH 100 µM) | inhibition at 100 µM (ALR2; pH 7.4, GSH added 0 µM) | inhibition at 100 µM (ALR2; pH 7.4, GSH added 5 µM) | inhibition at 100 µM (ALR2; pH 7.4, GSH added 10 µM) | inhibition at 100 µM (ALR2; pH 7.4, GSH added 20 µM) | inhibition at 100 µM (ALR2; pH 7.4, GSH added 40 µM) | inhibition at 100 µM (ALR2; pH 7.4, GSH added 100 µM) | inhibition at 100 µM (ALR2; pH 7.4, GSH added 1000 µM) | inhibition at 100 µM (ALR2; pH 7.4, GSH added 5000 µM) | water/octanol distribution ratio compared to cemtirestat of formula II ([3]; acidic environment at pH 4.6, fold higher than cemtirestat of formula II) | D (distribution ratio in the buffer/octan-1-ol system) ([3]; pH 4.6, acetate buffer (0.1M) + 0.15 M KCl) | D (distribution ratio in the buffer/octan-1-ol system) ([3]; pH 7.4, phosphate buffer (0.1M) + 0.15 M KCl) | IC50 (AKR1B1) | IC50 (AKR1B10 [4])
O=C(O)Cn1c2ccccc2c2nnc(S)nc21 [Cemtirestat of formula II, 2-(3-thioxo-2,3-dihydro-5H-[1,2,4]triazino[5,6-b]indol-5-yl)acetic acid] | 3.69 ± 0.53 µM | – | – | – | – | – | – | – | – | – | – | – | – | – | – | – | – | – | – | –
O=C(O)Cn1c2ccccc2c2nnc(SSc3nnc4c5ccccc5n(CC(=O)O)c4n3)nc21 [Disulfide of formula I, 2,2'-(disulfanediylbis(5H-[1,2,4]triazino[5,6-b]indole-3,5-diyl))diacetic acid] | – | 39.68 ± 1.59% | 4.46 ± 1.68 nmol/mL/s | 67.70 ± 3.72% | 7.30 ± 1.46 nmol/mL/s | 85.16 ± 5.11% | 9.83 ± 2.09 nmol/mL/s | < 1% | < 1% | 8.9 ± 0.6% | 12.4 ± 1.4% | 16.1 ± 6.9% | 72.6 ± 9.1% | 94 ± 1.6% | 91.1 ± 1.5% | ~4 fold | 0.1136 ± 0.0022 | 0.0095 ± 0.0019 | > 100 µM | > 100 µM
